# Experimental data taken from patent US20230157945A1, “Nasal Hygiene Method and Formulation” (ACTUAL NATURAL HEALTH & WELLNESS PRODUCTS, INC., priority 2018, published 2023).
# System: human nasal passage
# Assay: testing of the nasal spray / nasal wash composition applied to the nasal passages
# Assay type: in vivo
# Settings: CBD at 0.3% by weight in the composition
# Protocol: A homogenized mixture of water, cannabinoid, an olfactory stimulant, and inorganic salt when applied to a nasal passage as a mist delivering 0.08 mL to 0.18 mL in each nostril is effective as a nasal wash. A solubilizing agent particularly suited for cannabinoids may also be added, such as those disclosed in U.S. patent application Ser. No. 17/527,465, filed Nov. 16, 2021.
# Practicing nasal hygiene by the use of the method of applying to a person's nostril a mist of nasal wash composition comprising the product of compounding under homogenizing conditions water, an amount of a source of chlorine dioxide, 0.1 to 1% by weight cannabinoid; 0.1 to 3% by weight of olfactory stimulant; and 0 to 5% by weight of at least one fixative compound; and blowing air out of the nostril. and composition of the invention, nasal irritation is reduced. […]
# It is a feature of the invention that the practice of nasal hygiene according to the invention requires only moderate and convenient quantities of the composition. It is sufficient for the user to place a convenient quantity of the composition, which can range from about 0.3 to 3 milliliters, into each nostril and retain it for a holding period which can range from a fraction of a minute to about ten minutes or as long as comfortable, and then remove it as by blowing the nose. […]
smiles,measurement,value
"C=C(C)[C@@H]1CCC(C)=C[C@H]1c1c(O)cc(CCCCC)cc1O [CBD, Cannabidiol]",pain relief,effective pain relief
